Measured values as given in patent US20210032257A1, “(E)-1-(4-(DIMETHYLAMINO)BUT-2-ENOYL)PYRROLIDIN-3-YL 4-((3-ISOPROPYL-5-METHYLPYRAZOLO[1,5-A]PYRIMIDIN-7-YL)AMINO)PIPERIDINE-1-CARBOXYLATE FOR INHIBITING CDK7” (Eli Lilly and Company, priority 2017, published 2021).

Experiments:
Experiment in all cases: Biomarker study proliferation (CellTiter-Glo)
Type in all cases: cell-based
DMS114 = system: DMS114
How it was run: (§1)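 Ten concentrations, threefold apart, starting from a 10 mM DMSO working stock, are applied to cells seeded at 5000/well. Exposure lasts 7 days at 37 °C, 5% CO2, and viability is read by luminescence.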

BT20 = system: BT20
How it was run: as §1

HLE = system: HLE
How it was run: as §1

DMS79 = system: DMS79
How it was run: as §1

OZ = system: OZ
How it was run: as §1

ZR751 = system: ZR751
How it was run: as §1

HUH28 = system: HUH28
How it was run: as §1

T84 = system: T84
How it was run: as §1

SNU398 = system: SNU398
How it was run: as §1

SNU387 = system: SNU387
How it was run: as §1

MDAMB157 = system: MDAMB157
How it was run: as §1

HT1197 = system: HT1197
How it was run: as §1

SNU423 = system: SNU423
How it was run: as §1

OCUM1 = system: OCUM1
How it was run: as §1

MKN7 = system: MKN7
How it was run: as §1

CAOV3 = system: CAOV3
How it was run: as §1

HS766T = system: HS766T
How it was run: as §1

JHH4 = system: JHH4
How it was run: as §1

T98G = system: T98G
How it was run: as §1

[1] = Homo sapiens, 168 h, read-out: Anti-proliferation effect IC50
[2] = 168 h, read-out: Anti-proliferation effect IC50

Cc1cc(NC2CCN(C(=O)O[C@H]3CCN(C(=O)/C=C/CN(C)C)C3)CC2)n2ncc(C(C)C)c2n1 [Example 1, [(3S)-1-[(E)-4-(dimethylamino)but-2-enoyl]pyrrolidin-3-yl] 4-[(3-isopropyl-5-methyl-pyrazolo[1,5-a]pyrimidin-7-yl)amino]piperidine-1-carboxylate]
Anti-proliferation effect % Inh. (DMS114; DMS114, LUNG, 7 days): 65%
Anti-proliferation effect Outcome (DMS114; DMS114, LUNG, 7 days): Cytostatic (cytostatic (IC50<1 μM and % inhibition <70%))
IC50 (DMS114; Homo sapiens, DMS-114, 168 h, read-out: Anti-proliferation effect IC50): 14 nM
Anti-proliferation effect % Inh. (BT20; BT20, BREAST, 7 days): 45%
Anti-proliferation effect Outcome (BT20; BT20, BREAST, 7 days): Cytostatic (cytostatic (IC50<1 μM and % inhibition <70%))
IC50 (BT20; Homo sapiens, BT-20, 168 h, read-out: Anti-proliferation effect IC50): 373 nM
IC50 (HLE; [1]): 30 nM
Anti-proliferation effect % Inh. (HLE; LIVER, 7 days): 77%
Anti-proliferation effect Outcome (HLE; LIVER, 7 days): Cytotoxic (cytotoxic (IC50<1 μM and % inhibition ≥70%))
Anti-proliferation effect % Inh. (DMS79; DMS79, LUNG, 7 days): 50%
Anti-proliferation effect Outcome (DMS79; DMS79, LUNG, 7 days): Cytostatic (cytostatic (IC50<1 μM and % inhibition <70%))
IC50 (DMS79; Homo sapiens, DMS-79, 168 h, read-out: Anti-proliferation effect IC50): 354 nM
IC50 (OZ; [2]): 50 nM
Anti-proliferation effect % Inh. (OZ; OZ, LIVER, 7 days): 77%
Anti-proliferation effect Outcome (OZ; OZ, LIVER, 7 days): Cytotoxic (cytotoxic (IC50<1 μM and % inhibition ≥70%))
IC50 (ZR751; Homo sapiens, ZR-75-1, 168 h, read-out: Anti-proliferation effect IC50): 43 nM
Anti-proliferation effect % Inh. (ZR751; ZR751, BREAST, 7 days): 69%
Anti-proliferation effect Outcome (ZR751; ZR751, BREAST, 7 days): Cytostatic (cytostatic (IC50<1 μM and % inhibition <70%))
IC50 (HUH28; [2]): 2900 nM
Anti-proliferation effect % Inh. (HUH28; HUH28, BILIARY, 7 days): 32%
Anti-proliferation effect Outcome (HUH28; HUH28, BILIARY, 7 days): Insensitive (insensitive (IC50≥1 μM))
IC50 (T84; Homo sapiens, T84, 168 h, read-out: Anti-proliferation effect IC50): 308 nM
Anti-proliferation effect % Inh. (T84; T84, INTESTINE, 7 days): 61%
Anti-proliferation effect Outcome (T84; T84, INTESTINE, 7 days): Cytostatic (cytostatic (IC50<1 μM and % inhibition <70%))
IC50 (SNU398; Homo sapiens, SNU-398, 168 h, read-out: Anti-proliferation effect IC50): 21 nM
Anti-proliferation effect % Inh. (SNU398; SNU398, LIVER, 7 days): 85%
Anti-proliferation effect Outcome (SNU398; SNU398, LIVER, 7 days): Cytotoxic (cytotoxic (IC50<1 μM and % inhibition ≥70%))
IC50 (SNU387; Homo sapiens, SNU-387, 168 h, read-out: Anti-proliferation effect IC50): > 10000 nM
Anti-proliferation effect % Inh. (SNU387; SNU387, LIVER, 7 days): 12%
Anti-proliferation effect Outcome (SNU387; SNU387, LIVER, 7 days): Insensitive (insensitive (IC50≥1 μM))
IC50 (MDAMB157; Homo sapiens, MDA-MB-157, 168 h, read-out: Anti-proliferation effect IC50): 866 nM
Anti-proliferation effect % Inh. (MDAMB157; MDAMB157, BREAST, 7 days): 39%
Anti-proliferation effect Outcome (MDAMB157; MDAMB157, BREAST, 7 days): Cytostatic (cytostatic (IC50<1 μM and % inhibition <70%))
Anti-proliferation effect % Inh. (HT1197; HT1197, URINARY, 7 days): 55%
Anti-proliferation effect Outcome (HT1197; HT1197, URINARY, 7 days): Cytostatic (cytostatic (IC50<1 μM and % inhibition <70%))
IC50 (HT1197; Homo sapiens, HT1197, 168 h, read-out: Anti-proliferation effect IC50): 281 nM
IC50 (SNU423; Homo sapiens, SNU-423, 168 h, read-out: Anti-proliferation effect IC50): > 10000 nM
Anti-proliferation effect % Inh. (SNU423; SNU423, LIVER, 7 days): 40%
Anti-proliferation effect Outcome (SNU423; SNU423, LIVER, 7 days): Insensitive (insensitive (IC50≥1 μM))
IC50 (OCUM1; OCUM1, 168 h, read-out: Anti-proliferation effect IC50): 27 nM
Anti-proliferation effect % Inh. (OCUM1; OCUM1, STOMACH, 7 days): 82%
Anti-proliferation effect Outcome (OCUM1; OCUM1, STOMACH, 7 days): Cytotoxic (cytotoxic (IC50<1 μM and % inhibition ≥70%))
IC50 (MKN7; Homo sapiens, MKN-7, 168 h, read-out: Anti-proliferation effect IC50): > 10000 nM
Anti-proliferation effect % Inh. (MKN7; MKN7, STOMACH, 7 days): 39%
Anti-proliferation effect Outcome (MKN7; MKN7, STOMACH, 7 days): Insensitive (insensitive (IC50≥1 μM))
Anti-proliferation effect % Inh. (CAOV3; CAOV3, OVARY, 7 days): 96%
Anti-proliferation effect Outcome (CAOV3; CAOV3, OVARY, 7 days): Cytotoxic (cytotoxic (IC50<1 μM and % inhibition ≥70%))
IC50 (CAOV3; Homo sapiens, Caov-3, 168 h, read-out: Anti-proliferation effect IC50): 19 nM
Anti-proliferation effect % Inh. (HS766T; HS766T, PANCREAS, 7 days): 72%
Anti-proliferation effect Outcome (HS766T; HS766T, PANCREAS, 7 days): Cytotoxic (cytotoxic (IC50<1 μM and % inhibition ≥70%))
IC50 (HS766T; Hs766T, 168 h, read-out: Anti-proliferation effect IC50): 62 nM
Anti-proliferation effect % Inh. (JHH4; JHH4, LIVER, 7 days): 65%
Anti-proliferation effect Outcome (JHH4; JHH4, LIVER, 7 days): Cytostatic (cytostatic (IC50<1 μM and % inhibition <70%))
IC50 (JHH4; JHH-4, 168 h, read-out: Anti-proliferation effect IC50): 166 nM
Anti-proliferation effect % Inh. (T98G; CNS, 7 days): 44%
Anti-proliferation effect Outcome (T98G; CNS, 7 days): Insensitive (insensitive (IC50≥1 μM))
IC50 (T98G; [1]): 1370 nM
